According to US20130261146A1, “NITRIC OXIDE AND ITS BIOMEDICAL SIGNIFICANCE” (The Research Foundation of State University of New York, priority 2010, published 2013):

Legend:
E. coli bacteria = assay: Inhibition of bacterial growth in culture; type: cell-based; details: E. coli incubated 5 and 24 hours at 37° C, streaked on LB-agar overnight
Protocol: Example 9 illustrates the anti-microbial effects of extracts including the active chemical agents on cells. A dried, powdered, formulation of a 1:1 mixture of the wheat grass extract and white willow bark extract prepared in Example 1 above was tested for its ability to inhibit bacterial growth in culture. The formulation was reconstituted in 10 ml of LB broth (Amersham Biosciences, Inc.). The broth was then inoculated with E. coli bacteria and incubated for 5 and 24 hours at 37° C. 20 μl of the cultures were streaked on LB-agar plates and incubated overnight at 37° C. […] An additional control experiment was conducted with the known antibacterial agent, SNAP. One μg/ml SNAP was added to LB broth. The broth was then inoculated with E. coli bacteria and incubated for 5 and 24 hours at 37° C. 20 μl of the cultures were streaked on LB-agar plates and incubated overnight at 37° C. Bacterial growth was decreased in the SNAP culture at 5 and 24 hours, as compared to the control.

[1] = system: SK-N-MC (ATCC # HBT-10) cells; assay: NO determination of SK-N-MC cells treated with plant extractions; type: cell-based; details: 6 mg of crude extraction
Protocol: Employing the isolation and purification techniques described above, a variety of herbaceous plants were analyzed for their ability to release cNOS—derived nitric oxide in the pedal ganglia and in publicly available SK-N-MC (ATCC # HBT-10) and PC-12 (ATCC # CRL 1721) cells. In Table I, a plus sign indicates detection of at least 1 nM nitric oxide. […] In Table II, results in the SK-N-MC cell line are set forth; the concentration of plant material used and the quantity of NO detected is indicated. […] In Table III, results are set forth for the identical procedures performed using the ganglia cell line. The types of plant materials employed are indicated, for example flowers, leaves, roots, rhizomes, stems, bark. Where not specified, leaves were employed.

Row | SMILES | bacterial growth versus control (LB broth alone) (E. coli bacteria) | Results (nM), NO determination of SK-N-MC cells [1]
1 | CC(=O)NC(C(=O)O)C(C)(C)SN=O (racemic) [SNAP, S-nitroso-N-acetyl-DL-penicillamine] | decreased | –
2 | O=c1c(O)c(-c2ccc(O)c(O)c2)oc2cc(O)cc(O)c12 [Quercetine] | – | 14 nM
